Structures are written as SMILES.

One series can be described thus: in vitro. The following applies: African green monkey. The procedure: The cytotoxicity of the Z-medicaments in Vero E6 (ZIKV target cells) was evaluated using the Cell Counting Kit-8 (CCK8).
Briefly, compounds at 2-fold serial dilutions were added to cells (2.0×10^4/well) pre-seeded in 96-well plates. The cells were cultured at 37° C. for 3 days, and incubated with CCK8 solution, followed by measurement of absorbance at 450 nm (A450 value) using microplate reader.

Series [1] deals with T1, binding between ZIKV EDIII and EDIII-specific mAb SMZAb5 (Zika virus, UniProt Q32ZE1, D679E/I627V/V603I/V629A).
T1 construct: human Fc (C)
The following applies: ELISA; EDIII 1.5 μg/ml, mAb 0.5 μg/ml; read-out: IC50, blocking EDIII-mAb binding, SMZAb5. The procedure: (§1) Binding of compounds (NPs) to ZIKV full-length E (FIG. 3A), EDIII (FIG. 3B), and NS2B-NS3 (FIG. 3C) proteins, was detected by ELISA. The percent binding was reported in the presence or absence of serially diluted NPs using the formula (1-[E/EDIII-NP]/[E/EDIII])×100 (for E/EDIII binding) or (1-[NS2B-NS3-NP]/[NS2B-NS3])×100 (for NSEB-NS3 binding). […] The concentrations of ZIKV EDIII and mAbs were 1.5 and 0.5 μg/ml, respectively. […] The concentrations of substrate (Bz-Nle-Lys-Lys-Arg-AMC) and ZIKV NS2B-NS3 protein were 4 μM and 1 μg/ml, respectively. The percent inhibition of protease activity was calculated in the presence or absence of serially diluted compounds using the formula (1-[NS2B-NS3-substrate-NP]/[NS2B-NS3-substrate])×100. The IC50 values were calculated based on the percent inhibition. The data are expressed as mean±s.e.m. (n=4).
(§2) ELISA was also used to determine the ability of ST087010 in inhibition of the binding between ZIKV EDIII and EDIII-specific human mAbs (SMZAb5, ZKA64-LALA, ZV-67, or Z004) or EDI/II-specific human mAb (ZKA78) control.
(In general: In an ELISA, binding on a coated surface is turned into a signal by an enzyme label.)

The target in series [2] is T2, binding between ZIKV EDIII and EDIII-specific mAb Z004 (Zika virus, UniProt Q32ZE1, D679E/I627V/V603I/V629A).
T2 construct: human Fc (C)
The following applies: ELISA; EDIII 1.5 μg/ml, mAb 0.5 μg/ml; read-out: IC50, blocking EDIII-mAb binding, Z004. The procedure:
as §1, §2

The target of series [3] is T3, binding between ZIKV EDIII and EDIII-specific mAb ZKA64-LALA (Zika virus, UniProt Q32ZE1, D679E/I627V/V603I/V629A).
T3 construct: human Fc (C)
The following applies: ELISA; EDIII 1.5 μg/ml, mAb 0.5 μg/ml; read-out: IC50, blocking EDIII-mAb binding, ZKA64-LALA. The procedure:
as §1, §2

Series [4] concerns the target T4, binding between ZIKV EDIII and EDIII-specific mAb ZV-67 (Zika virus, UniProt Q32ZE1, D679E/I627V/V603I/V629A).
T4 construct: human Fc (C)
The following applies: ELISA; EDIII 1.5 μg/ml, mAb 0.5 μg/ml; read-out: IC50, blocking EDIII-mAb binding, ZV-67. The procedure:
as §1, §2

Series [5] has as its target T5, binding between ZIKV EDIII and EDI/II-specific mAb ZKA78 (Zika virus, UniProt Q32ZE1, D679E/I627V/V603I/V629A).
T5 construct: human Fc (C)
The series is described as follows: ELISA competition, control EDI/II-specific mAb ZKA78. The following applies: ZKA78 does not bind EDIII. The procedure: ELISA was also used to determine the ability of ST087010 in inhibition of the binding between ZIKV EDIII and EDIII-specific human mAbs (SMZAb5, ZKA64-LALA, ZV-67, or Z004) or EDI/II-specific human mAb (ZKA78) control. […] The plates were then sequentially incubated with HRP-conjugated anti-human IgG-Fab antibody and TMB substrate, followed by detection of A450 values. Percent inhibition (% inhibition) of compounds was calculated based on the ELISA results, and IC50 was obtained […].

T4 sequence (Q32ZE1 584-695 V603I/I627V/V629A/D679E): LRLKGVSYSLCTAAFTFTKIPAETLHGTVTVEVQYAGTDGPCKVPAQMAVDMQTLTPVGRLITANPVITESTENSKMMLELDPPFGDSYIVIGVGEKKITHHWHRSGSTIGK
T3 sequence (Q32ZE1 584-695 V603I/I627V/V629A/D679E): as above
T5 sequence (Q32ZE1 584-695 V603I/I627V/V629A/D679E): as above
T1 sequence (Q32ZE1 584-695 V603I/I627V/V629A/D679E): as above
T2 sequence (Q32ZE1 584-695 V603I/I627V/V629A/D679E): as above

For the molecule `Cc1cc2c(C(C)C)c(O)c(O)c(C=O)c2c(O)c1-c1c(C)cc2c(C(C)C)c(O)c(O)c(C=O)c2c1O` [Gossypol, gossypol], the CC50 at 3 days in the series “in vitro” stood at 14.49 ± 0.07 µM.
As to `Cc1cc2c(C(C)C)c(O)c(O)c(/C=N/n3c(=O)[nH][nH]c3=O)c2c(O)c1-c1c(C)cc2c(C(C)C)c(O)c(O)c(/C=N/n3c(=O)[nH][nH]c3=O)c2c1O` [ST087010], the IC50 is 5.72 µM in series [1], 44.5 µM in series [2], 4.17 µM in series [3] and 6.7 µM in series [4]. In addition, the “Effect on binding of EDI/II-specific mAb ZKA78 (control)” value in series [5] was “no observable effect”.

One may read the IC50 as the concentration needed to halve the response being measured.

Values taken from US20220313651A1, “INHIBITORS OF ZIKA VIRUS INFECTION” (priority 2019, published 2022).
